Source: US6737383B1, “Herbicidal oxadiazolidines” (priority 1999, dated 2004)

How the values were obtained:
crabgrass = test: Test B pre/postemergence crabgrass; assay type: in vivo, Digitaria sanguinalis
Method in brief: (§1)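 Response is a visual 0-to-10 score relative to untreated plants, where 0 means no effect and 10 means complete control, taken twelve to sixteen days after application. Treatments went onto soil at planting and onto foliage of 1- to 4-leaf plants, using a surfactant-containing non-phytotoxic solvent.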

purple nutsedge = test: Test B pre/postemergence purple nutsedge; assay type: in vivo, Cyperus rotundus; details: for Plant response rating, Nutsedge: scale of 0 to 10 where 0 is no effect and 10 is complete control
Method in brief: as §1

velvetleaf = test: Test B pre/postemergence velvetleaf; assay type: in vivo, Abutilon theophrasti; details: for Plant response rating, Velvetleaf: scale of 0 to 10 where 0 is no effect and 10 is complete control
Method in brief: as §1

corn = test: Test B pre/postemergence corn; assay type: in vivo, Zea mays
Method in brief: as §1

cocklebur = test: Test B pre/postemergence cocklebur; assay type: in vivo, Xanthium strumarium
Method in brief: as §1

giant foxtail = test: Test B pre/postemergence giant foxtail; assay type: in vivo, Setaria faberii
Method in brief: as §1

bedstraw = test: Test B pre/postemergence bedstraw; assay type: in vivo, Galium aparine; details: Postemergence
Method in brief: as §1

morningglory = test: Test B pre/postemergence morningglory; assay type: in vivo, Ipomoea hederacea; details: for Plant response rating, Morningglory: scale of 0 to 10 where 0 is no effect and 10 is complete control
Method in brief: as §1

wheat = test: Test B pre/postemergence wheat; assay type: in vivo, Triticum aestivum; details: for Plant response rating, Wheat: scale of 0 to 10 where 0 is no effect and 10 is complete control
Method in brief: as §1

rape = test: Test B pre/postemergence rape; assay type: in vivo, Brassica napus; details: for Plant response rating, Rape: scale of 0 to 10 where 0 is no effect and 10 is complete control
Method in brief: as §1

pigweed = test: Test B pre/postemergence pigweed; assay type: in vivo, Amaranthus retroflexus; details: for Plant response rating, Redroot pigweed: scale of 0 to 10 where 0 is no effect and 10 is complete control
Method in brief: as §1

blackgrass = test: Test B pre/postemergence blackgrass; assay type: in vivo, Alopecurus myosuroides
Method in brief: as §1

wild oat = test: Test B pre/postemergence wild oat; assay type: in vivo, Avena fatua; details: for Plant response rating, Wild oats: scale of 0 to 10 where 0 is no effect and 10 is complete control
Method in brief: as §1

soybean = test: Test B pre/postemergence soybean; assay type: in vivo, Glycine max; details: for Plant response rating, Soybean: scale of 0 to 10 where 0 is no effect and 10 is complete control
Method in brief: as §1

surinam grass = test: Test B pre/postemergence surinam grass; assay type: in vivo, Brachiaria decumbens
Method in brief: as §1

[1] = Postemergence, Rate 250 g/ha, scale 0 to 10
[2] = Postemergence, Rate 500 g/ha, scale of 0 to 10 where 0 is no effect and 10 is complete control
[3] = Preemergence, Rate 62 g/ha, scale of 0 to 10 where 0 is no effect and 10 is complete control
[4] = Preemergence, Rate 125 g/ha, scale of 0 to 10 where 0 is no effect and 10 is complete control
[5] = Preemergence, Rate 250 g/ha, scale 0 to 10, 0 is no effect, 10 is complete control
[6] = Preemergence, Rate 500 g/ha, scale 0 to 10, 0 is no effect, 10 is complete control
[7] = Rate 62 g/ha, Postemergence, scale 0 to 10 (0 no effect, 10 complete control)
[8] = Rate 125 g/ha, Postemergence, scale 0 to 10, 0 is no effect, 10 is complete control

CC(C)N(C(=O)n1oc(=O)n(CCCl)c1=O)c1ccccc1 [Compound 469]
0: Nutsedge plant response rating (purple nutsedge; [1]) | Plant response rating, Nutsedge (purple nutsedge; Preemergence, Rate 62 g/ha) | Plant response rating, Nutsedge (purple nutsedge; Preemergence, Rate 125 g/ha) | Nutsedge plant response rating (purple nutsedge; [5]) | Nutsedge plant response rating (purple nutsedge; [7]) | Nutsedge plant response rating (purple nutsedge; [8]) | Velvetleaf plant response rating (velvetleaf; [1]) | Velvetleaf plant response rating (velvetleaf; [7]) | Velvetleaf plant response rating (velvetleaf; [8]) | Plant response rating, Corn (corn; [3]) | Corn plant response rating (corn; [7]) | Corn plant response rating (corn; [8]) | Cocklebur plant response rating (cocklebur; [1]) | Plant response rating, Cocklebur (cocklebur; [3]) | Plant response rating, Cocklebur (cocklebur; [4]) | Cocklebur plant response rating (cocklebur; [5]) | Cocklebur plant response rating (cocklebur; [6]) | Cocklebur plant response rating (cocklebur; [7]) | Cocklebur plant response rating (cocklebur; [8]) | Bedstraw plant response rating (bedstraw; Rate 62 g/ha, scale 0 to 10 (0 no effect, 10 complete control)) | Plant response rating, Morningglory (morningglory; Preemergence, Rate 62 g/ha) | Plant response rating, Morningglory (morningglory; Preemergence, Rate 125 g/ha) | Morningglory plant response rating (morningglory; [5]) | Plant response rating, Wheat (wheat; Preemergence, Rate 62 g/ha) | Wheat plant response rating (wheat; [7]) | Wheat plant response rating (wheat; [8]) | Rape plant response rating (rape; [1]) | Plant response rating, Rape (rape; Preemergence, Rate 62 g/ha) | Rape plant response rating (rape; [7]) | Rape plant response rating (rape; [8]) | Redroot pigweed plant response rating (pigweed; [7]) | Redroot pigweed plant response rating (pigweed; [8]) | Wild oats plant response rating (wild oat; [7]) | Plant response rating, Soybean (soybean; Preemergence, Rate 62 g/ha) | Plant response rating, Soybean (soybean; Preemergence, Rate 125 g/ha) | Soybean plant response rating (soybean; [5]) | Soybean plant response rating (soybean; [7]) | B. signalgrass plant response rating (surinam grass; [7])
2: Corn plant response rating (corn; [1]) | Plant response rating, Corn (corn; [4]) | Plant response rating, Wheat (wheat; Preemergence, Rate 125 g/ha) | Plant response rating, Rape (rape; Preemergence, Rate 125 g/ha) | Redroot pigweed plant response rating (pigweed; [1]) | Soybean plant response rating (soybean; [6]) | B. signalgrass plant response rating (surinam grass; Postemergence, Rate 250 g/ha, scale 0 to 10, 0 no effect, 10 complete control) | B. signalgrass plant response rating (surinam grass; [8])
7: Velvetleaf plant response rating (velvetleaf; [6]) | Blackgrass plant response rating (blackgrass; [7]) | Blackgrass plant response rating (blackgrass; [8]) | Plant response rating, Wild oats (wild oat; Preemergence, Rate 62 g/ha) | Plant response rating, Wild oats (wild oat; Preemergence, Rate 125 g/ha) | Plant response rating, B. signalgrass (surinam grass; [4]) | B. signalgrass plant response rating (surinam grass; [5])
3: Crabgrass plant response rating (crabgrass; [7]) | Cocklebur plant response rating (cocklebur; [2]) | Wheat plant response rating (wheat; [1]) | Wheat plant response rating (wheat; [5]) | Wild oats plant response rating (wild oat; [1]) | Plant response rating, B. signalgrass (surinam grass; [3])
4: Plant response rating, Velvetleaf (velvetleaf; Preemergence, Rate 62 g/ha) | Corn plant response rating (corn; [2]) | Soybean plant response rating (soybean; [1])
10: Plant response rating, Crabgrass (crabgrass; [4]) | Crabgrass plant response rating (crabgrass; [5]) | Crabgrass plant response rating (crabgrass; [6]) | Plant response rating, Giant foxtail (giant foxtail; [4]) | Giant foxtail plant response rating (giant foxtail; [5]) | Giant foxtail plant response rating (giant foxtail; [6]) | Morningglory plant response rating (morningglory; [1]) | Rape plant response rating (rape; [5]) | Rape plant response rating (rape; [6]) | Plant response rating, Redroot pigweed (pigweed; Preemergence, Rate 125 g/ha) | Redroot pigweed plant response rating (pigweed; [5]) | Redroot pigweed plant response rating (pigweed; [6]) | Blackgrass plant response rating (blackgrass; [6]) | Wild oats plant response rating (wild oat; [5]) | Wild oats plant response rating (wild oat; [6]) | B. signalgrass plant response rating (surinam grass; [6])
6: Crabgrass plant response rating (crabgrass; [8]) | Velvetleaf plant response rating (velvetleaf; [5]) | Bedstraw plant response rating (bedstraw; Rate 250 g/ha, scale 0 to 10) | Bedstraw plant response rating (bedstraw; Rate 500 g/ha, scale of 0 to 10 where 0 is no effect and 10 is complete control) | Wheat plant response rating (wheat; [6]) | Plant response rating, Blackgrass (blackgrass; [3]) | B. signalgrass plant response rating (surinam grass; [2])
9: Crabgrass plant response rating (crabgrass; [1]) | Crabgrass plant response rating (crabgrass; [2]) | Plant response rating, Crabgrass (crabgrass; [3]) | Corn plant response rating (corn; [6]) | Giant foxtail plant response rating (giant foxtail; [1]) | Giant foxtail plant response rating (giant foxtail; [2]) | Plant response rating, Giant foxtail (giant foxtail; [3]) | Giant foxtail plant response rating (giant foxtail; [8]) | Morningglory plant response rating (morningglory; [7]) | Morningglory plant response rating (morningglory; [8]) | Blackgrass plant response rating (blackgrass; [1]) | Blackgrass plant response rating (blackgrass; [2]) | Blackgrass plant response rating (blackgrass; [5])
5: Plant response rating, Velvetleaf (velvetleaf; Preemergence, Rate 125 g/ha) | Plant response rating, Redroot pigweed (pigweed; Preemergence, Rate 62 g/ha)
1: Morningglory plant response rating (morningglory; [6]) | Soybean plant response rating (soybean; [8])
8: Corn plant response rating (corn; [5]) | Giant foxtail plant response rating (giant foxtail; [7]) | Plant response rating, Blackgrass (blackgrass; [4])
